Measurements taken from US4209442A, “Angiotensin II analogs and process for the preparation thereof” (Richter Gedeon Vegyeszeti Gyar Rt., priority 1977, dated 1980).

System: hypertension induced by angiotensin II
Test: Decrease in blood pressure after intravenous administration, under i.v. infusion of angiotensin II
Type: in vivo, tomcats
Settings: single dose, angiotensin II infusion 0.5 μg/kg/min, average of 6 experiments
Procedure: The antagonistic activity of the compounds having the formula I was tested on tomcats. The blood pressure was measured on the cervical artery. The tests were performed by introducing a Hypertension (CIBA) infusion into a lateral femoral vane at a speed of 0.5 μg/kg/min. When the increase in blood pressure was stabilized, the aqueous, physiological or carrier-containing solutions of the test compounds and Saralasin were administered in a single dose, intravenously or subcutaneously, and the decrease in blood pressure was measured. In the Table 1 the decrease in the arterial blood pressure under the influence of an intravenous administration of the test compounds is illustrated. For comparision Saralasin is used. The data set forth in the Table 1 were obtained by calculating the average of the results of 6 experiments. The margins of error indicate the scatter of the main value.

Row | Molecule | Decrease in blood pressure (mmHg) after administration of 10 μg/kg i.v. doses [mmHg] | Decrease in blood pressure (mmHg) after administration of 20 /μg/kg i.v. doses (20 μg/kg i.v.) [mmHg]
1 | CNCC(=O)N[C@@H](CCCN=C(N)N)C(=O)N[C@H](C(=O)N[C@@H](Cc1ccc(O)cc1)C(=O)N[C@H](C(=O)N[C@@H](Cc1cnc[nH]1)C(=O)N1CCC[C@H]1C(=O)N[C@@H](C)C(=O)O)C(C)C)C(C)C [Saralasin, reference compound] | -41 ± 2.5 | 
2 | (Hydroxyacetyl^1,Thr(Me)^8)-angiotensin II [(Hydroxyacetyl^1,Thr(Me)^8)-AngII] | -33 ± 5.3 | -38 ± 4.1
